In patent US20230218632A1, “CYCLIC SULFONAMIDE DERIVATIVES AS TRAP1 MODULATORS AND USES THEREOF” (Amathus Therapeutics, Inc., priority 2020, published 2023) one finds EC50 and Emax data, which are given here for 36 molecules.

In this test the target is T1, TRAP1 enzyme (Homo sapiens, UniProt Q12931).
T1 sequence (Q12931 60-704): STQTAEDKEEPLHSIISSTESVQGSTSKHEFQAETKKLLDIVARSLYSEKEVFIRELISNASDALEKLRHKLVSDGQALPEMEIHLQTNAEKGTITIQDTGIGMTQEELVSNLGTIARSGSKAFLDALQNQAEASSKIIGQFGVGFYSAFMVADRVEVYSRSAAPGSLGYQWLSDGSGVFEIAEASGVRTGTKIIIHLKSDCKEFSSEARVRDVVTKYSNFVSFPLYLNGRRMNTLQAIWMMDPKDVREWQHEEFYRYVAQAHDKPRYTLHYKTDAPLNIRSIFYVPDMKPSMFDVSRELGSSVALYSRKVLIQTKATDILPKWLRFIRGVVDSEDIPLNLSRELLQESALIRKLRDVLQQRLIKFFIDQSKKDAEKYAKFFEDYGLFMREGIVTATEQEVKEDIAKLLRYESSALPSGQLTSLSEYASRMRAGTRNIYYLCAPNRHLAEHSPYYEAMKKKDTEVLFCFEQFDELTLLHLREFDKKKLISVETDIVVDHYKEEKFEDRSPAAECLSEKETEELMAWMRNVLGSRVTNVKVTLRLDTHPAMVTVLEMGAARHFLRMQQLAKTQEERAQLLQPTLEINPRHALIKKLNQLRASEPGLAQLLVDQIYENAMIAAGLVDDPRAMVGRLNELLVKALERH
The test can be described thus: ADP Glo assay (ATPase activity of TRAP1). It is filed as biochemical. Particulars: for EC50: 150 nM Trap1, 20 µM ATP, concentration for half maximal activation, read-out: ADP GLO DRC: GeoMean EC50; for Emax: maximal percent activation, read-out: ADP GLO DRC: Mean Emax. Here is the method: Potency of test compounds to modulate the ATPase activity of TRAP1 enzyme was evaluated using ADP Glo assay. The assay is based on quantification of the ADP generated from ATP in the ATPase reaction. The assay is performed in two steps; first, after the ATPase reaction, an equal volume of ADP-Glo™ Reagent is added to terminate the ATPase reaction and deplete the remaining ATP. Second, the Kinase Detection Reagent is added to simultaneously convert ADP to ATP and allow the newly synthesized ATP to be measured using a luciferase/luciferin reaction.
All the assays were carried out in a 384-well Proxiplate. The buffer used was 25 mM Pipes pH-7.5, 40 mM KCl, 0.05 mM MgCl2, 0.025 % BSA, 0.316 mM EGTA, 0.003% Empigen, 0.01% Igepal. 150 nM Trap1 enzyme was incubated with various concentrations of the test compound (0.79 µM - 100 µM) at 37° C. for 30 mins (except in blank wells). 20 µM ATP was added to each well to start the reaction. The plate was spun for 1 min at 1200 rpm and then incubated at 37° C. for 60 mins. 5 µl of ADP Glo reagent was added to all the wells and spun the plate for 1 min at 1200 rpm and kept it on a shaker at ambient temperature for 60 mins. 10 µl of kinase detection mix was added to all the wells and the plate was read for Luminescence at 495 nm. The amount of ADP released was estimated from ATP/ADP standard curve generated at the same experimental conditions. Emax (Maximal percent activation) and EC50 (concentration for half maximal activation ) were estimated by fitting the dose response data to a sigmoidal curve fitting equation using Graphpad Prism software V. 8.
(In ADP-Glo the light output rises with the ADP produced.)

SMILES strings stand for the structures. A value given as a limit tells only on which side of the number the result lay.

In the case of `Cc1cc(C(=O)Nc2ccc3c(c2)S(=O)(=O)N(c2ccc(C(F)(F)F)cc2)CCO3)ccn1` [Compound 2172], the EC50 (as a rule, the concentration that produces a half-maximal response) lay within 20 to 30 µM and the Emax (in general, the greatest response seen or fitted, relative to the assay's reference) fell in the range of 150 to 200%.

In the case of `Cc1ncsc1C(=O)Nc1ccc2c(c1)S(=O)(=O)N(c1ccc(C(F)(F)F)cc1)CCO2` [Compound 2058, N-(1,1-Dioxido-2-(4-(Trifluoromethyl)Phenyl)-3,4-Dihydro-2H-Benzo[b][1,4,5]Oxathiazepin-8-yl)-4-Methylthiazole-5-Carboxamide], the half-maximal effective concentration (EC50) is less than 20 µM and the maximum response (Emax) was 150 to 200%.

With `Cc1ocnc1C(=O)Nc1ccc2c(c1)S(=O)(=O)N(c1ccc(C#N)cc1)CCO2` [Compound 2377, N-(2-(4-cyanophenyl)-1,1-dioxido-3,4-dihydro-2H-benzo[b][1,4,5]oxathiazepin-8-yl)-5-methyloxazole-4-carboxamide], the EC50 was 30 to 100 µM and the maximal effect (Emax) fell in the range of 150 to 200%.

For `O=C(Nc1ccc2c(c1)S(=O)(=O)N(c1ccc(C(F)(F)F)cc1)CCO2)c1ccncc1` [Compound 2234], the EC50 was 20 to 30 µM and the Emax was 150 to 200%.

On to `Cc1ncc(C(=O)Nc2ccc3c(c2)S(=O)(=O)N(c2ccc(C(F)(F)F)cc2)CCO3)c(C)n1` [Compound 2236], for which the EC50 lay in the range of 30 to 100 µM and the Emax was 150 to 200%.

Consider `Cn1c(C(=O)Nc2ccc3c(c2)S(=O)(=O)N(c2ccc(C(F)(F)F)cc2)CCO3)cnc1O` [Compound 2351], for which the EC50 is 30 to 100 µM and the Emax was greater than 200%.

Consider `COc1nccnc1C(=O)Nc1ccc2c(c1)S(=O)(=O)N(c1ccc(C(F)(F)F)cc1)CCO2` [Compound 2230], for which the EC50 was in the range of 20 to 30 µM and the Emax was in the range of 150 to 200%.

In the case of `CCn1cncc1C(=O)Nc1ccc2c(c1)S(=O)(=O)N(c1ccc(C(F)(F)F)cc1)CCO2` [Compound 2213], the EC50 was less than 20 µM and the maximal effect (Emax) lay in the range of 150 to 200%.

Consider `O=C(Nc1ccc2c(c1)S(=O)(=O)N(c1ccc(C(F)(F)F)cc1)CCO2)c1ccccn1` [Compound 2197], for which the half-maximal effective concentration (EC50) is 30 to 100 µM and the Emax is 129 to 149%.

Turning to `Cn1cnc(C(=O)Nc2ccc3c(c2)S(=O)(=O)N(c2ccc(C(F)(F)F)cc2)CCO3)c1` [Compound 2249], the 50% effective concentration (EC50) is 30 to 100 µM and the Emax lay within 150 to 200%.

In the case of `O=C(Nc1ccc2c(c1)S(=O)(=O)N(c1ccc(C(F)(F)F)cc1)CCO2)c1c(F)cncc1F` [Compound 2198], the EC50 is 20 to 30 µM and the Emax lay within 150 to 200%.

In the case of `CC(C)n1cnc(C(=O)Nc2ccc3c(c2)S(=O)(=O)N(c2ccc(C(F)(F)F)cc2)CCO3)n1` [Compound 2258], the EC50 lay in the range of 20 to 30 µM and the Emax was in the range of 129 to 149%.

Regarding `Cn1nc(C(=O)Nc2ccc3c(c2)S(=O)(=O)N(c2ccc(C(F)(F)F)cc2)CCO3)ccc1=O` [Compound 2228], the EC50 is 20 to 30 µM and the Emax lay in the range of 129 to 149%.

In the case of `Cc1noc(C)c1C(=O)Nc1ccc2c(c1)S(=O)(=O)N(c1ccc(C(F)(F)F)cc1)CCO2` [Compound 2181], the EC50 was less than 20 µM and the Emax lay within 129 to 149%.

For the molecule `O=C(Nc1ccc2c(c1)S(=O)(=O)N(c1ccc(C(F)(F)F)cc1)CCO2)c1cscn1` [Compound 2184], the EC50 is less than 20 µM and the Emax was in the range of 129 to 149%.

As to `COc1ccc(N2CCOc3ccc(NC(=O)c4ncoc4C)cc3S2(=O)=O)cc1` [Compound 2167, N-(2-(4-methoxyphenyl)-1,1-dioxido-3,4-dihydro-2H-benzo[b][1,4,5]oxathiazepin-8-yl)-5-methyloxazole-4-carboxamide], the EC50 lay within 30 to 100 µM and the Emax is 150 to 200%.

Take `Cc1cnc(C(=O)Nc2ccc3c(c2)S(=O)(=O)N(c2ccc(C(F)(F)F)cc2)CCO3)nc1` [Compound 2210]: the EC50 was less than 20 µM and the maximum response (Emax) lay within 150 to 200%.

For the molecule `O=C(Nc1ccc2c(c1)S(=O)(=O)N(c1ccc(C(F)(F)F)cc1)CCO2)c1ccc(O)nc1` [Compound 2299], the EC50 is 30 to 100 µM and the Emax is greater than 200%.

On to `O=C(Nc1ccc2c(c1)S(=O)(=O)N(c1ccc(C(F)(F)F)cc1)CCO2)c1cccnc1O` [Compound 2280], for which the EC50 was in the range of 30 to 100 µM and the Emax was 150 to 200%.

Consider `COc1cc(C(=O)Nc2ccc3c(c2)S(=O)(=O)N(c2ccc(C(F)(F)F)cc2)CCO3)n(C)n1` [Compound 2222], for which the EC50 is less than 20 µM and the Emax was 150 to 200%.

On to `Cc1ncc(C(=O)Nc2ccc3c(c2)S(=O)(=O)N(c2ccc(C(F)(F)F)cc2)CCO3)cn1` [Compound 2200], for which the 50% effective concentration (EC50) is 30 to 100 µM and the Emax lay within 150 to 200%.

`Cc1ncoc1C(=O)Nc1ccc2c(c1)S(=O)(=O)N(c1ccc(C(F)(F)F)cc1)CCCO2` [Compound 1989, N-(1,1-Dioxido-2-(4-(Trifluoromethyl) Phenyl)-2,3,4,5-Tetrahydrobenzo[b][1,4,5]Oxathiazocin-9-yl)-4-Methyloxazole-5-Carboxamide]: the EC50 is 30 to 100 µM and the Emax was greater than 200%.

Turning to `Cc1c(C(=O)Nc2ccc3c(c2)S(=O)(=O)N(c2ccc(C(F)(F)F)cc2)CCO3)cnn1C` [Compound 2295], the concentration for a half-maximal effect (EC50) was in the range of 30 to 100 µM and the Emax is greater than 200%.

As to `O=C(Nc1ccc2c(c1)S(=O)(=O)N(c1ccc(C(F)(F)F)cc1)CCO2)c1cnco1` [Compound 1994, n-(1,1-Dioxido-2-(4-(Trifluoromethyl) Phenyl)-3,4-Dihydro-2H-Benzo[b][1,4,5]Oxathiazepin-8-yl)Oxazole-5-Carboxamide], the EC50 lay within 30 to 100 µM and the Emax was greater than 200%.

Turning to `Cc1ncoc1C(=O)Nc1ccc2c(c1)S(=O)(=O)N(c1ccc(Cl)cc1)CCO2` [Compound 1210, N-(2-(4-chlorophenyl)-1,1-Dioxido-3,4-Dihydro-2H-Benzo[b][1,4,5]Oxathiazepin-8-yl)-4-Methyloxazole-5-Carboxamide], the EC50 lay within 30 to 100 µM and the Emax is greater than 200%.

In the case of `O=C(Nc1ccc2c(c1)S(=O)(=O)N(c1ccc(C(F)(F)F)cc1)CCO2)c1cc[nH]c(=O)c1` [Compound 2187], the EC50 lay in the range of 30 to 100 µM and the Emax is greater than 200%.

Consider `O=C(Nc1ccc2c(c1)S(=O)(=O)N(c1ccc(C(F)(F)F)cc1)CCO2)c1ccc(O)nn1` [Compound 2194], for which the EC50 was less than 20 µM and the Emax was 129 to 149%.

In the case of `O=C(Nc1ccc2c(c1)S(=O)(=O)N(c1ccc(C(F)(F)F)cc1)CCO2)c1csc(-c2ccccc2)n1` [Compound 2503], the EC50 lay within 30 to 100 µM and the Emax fell in the range of 129 to 149%.

As to `CCn1nccc1C(=O)Nc1ccc2c(c1)S(=O)(=O)N(c1ccc(C(F)(F)F)cc1)CCO2` [Compound 2254], the EC50 was less than 20 µM and the maximal response (Emax) fell in the range of 129 to 149%.

As for `O=C(Nc1ccc2c(c1)S(=O)(=O)N(c1ccc(C(F)(F)F)cc1)CCO2)c1csc(CO)n1` [Compound 2305], the EC50 fell in the range of 20 to 30 µM and the Emax was 129 to 149%.

As for `O=C(Nc1ccc2c(c1)S(=O)(=O)N(c1ccc(C(F)(F)F)cc1)CCO2)c1ccc(CO)cn1` [Compound 2296], the EC50 was less than 20 µM and the Emax was 150 to 200%.

`COc1ncncc1C(=O)Nc1ccc2c(c1)S(=O)(=O)N(c1ccc(C(F)(F)F)cc1)CCO2` [Compound 2245]: the concentration giving a half-maximal response (EC50) is 20 to 30 µM and the Emax was 129 to 149%.

Turning to `CCc1nn(C)cc1C(=O)Nc1ccc2c(c1)S(=O)(=O)N(c1ccc(C(F)(F)F)cc1)CCO2` [Compound 2265], the EC50 is less than 20 µM and the Emax is 150 to 200%.

With `Cc1nc(C)c(C(=O)Nc2ccc3c(c2)S(=O)(=O)N(c2ccc(C(F)(F)F)cc2)CCO3)s1` [Compound 2248], the EC50 lay within 30 to 100 µM and the Emax lay in the range of 150 to 200%.

Turning to `Cc1nccnc1C(=O)Nc1ccc2c(c1)S(=O)(=O)N(c1ccc(C(F)(F)F)cc1)CCO2` [Compound 2215], the 50% effective concentration (EC50) was 30 to 100 µM and the Emax is 129 to 149%.

With `O=C(Nc1ccc2c(c1)S(=O)(=O)N(c1ccc(C(F)(F)F)cc1)CCO2)c1ccncn1` [Compound 2175], the EC50 was less than 20 µM and the maximal effect (Emax) was in the range of 129 to 149%.
